One test concerns MOLM-13. Nature of the test: cells. The following applies: Homo sapiens, MOLM-13, 192 h.
Test [1] addresses T1, Amine oxidase [flavin-containing] B (Homo sapiens, UniProt P27338).
T1 sequence (P27338 whole entry): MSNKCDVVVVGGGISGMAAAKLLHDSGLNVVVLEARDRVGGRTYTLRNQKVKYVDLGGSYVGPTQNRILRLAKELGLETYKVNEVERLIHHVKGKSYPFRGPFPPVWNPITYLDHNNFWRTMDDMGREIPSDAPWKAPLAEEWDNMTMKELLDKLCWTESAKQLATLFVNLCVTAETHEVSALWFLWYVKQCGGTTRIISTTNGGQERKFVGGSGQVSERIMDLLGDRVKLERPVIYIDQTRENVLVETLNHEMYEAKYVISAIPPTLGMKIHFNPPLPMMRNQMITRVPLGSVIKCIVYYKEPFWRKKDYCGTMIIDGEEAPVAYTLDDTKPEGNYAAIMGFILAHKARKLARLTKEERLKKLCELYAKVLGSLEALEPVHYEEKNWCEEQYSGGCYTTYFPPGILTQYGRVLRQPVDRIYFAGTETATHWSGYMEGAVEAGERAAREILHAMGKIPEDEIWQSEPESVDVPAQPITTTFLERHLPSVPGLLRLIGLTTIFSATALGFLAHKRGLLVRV

Test [2] concerns THP-1. Nature of the test: cells. The following applies: Homo sapiens, THP-1, 192 h.
Test [3] concerns the target T2, Amine oxidase [flavin-containing] A (Homo sapiens, UniProt P21397).
T2 sequence (P21397 whole entry): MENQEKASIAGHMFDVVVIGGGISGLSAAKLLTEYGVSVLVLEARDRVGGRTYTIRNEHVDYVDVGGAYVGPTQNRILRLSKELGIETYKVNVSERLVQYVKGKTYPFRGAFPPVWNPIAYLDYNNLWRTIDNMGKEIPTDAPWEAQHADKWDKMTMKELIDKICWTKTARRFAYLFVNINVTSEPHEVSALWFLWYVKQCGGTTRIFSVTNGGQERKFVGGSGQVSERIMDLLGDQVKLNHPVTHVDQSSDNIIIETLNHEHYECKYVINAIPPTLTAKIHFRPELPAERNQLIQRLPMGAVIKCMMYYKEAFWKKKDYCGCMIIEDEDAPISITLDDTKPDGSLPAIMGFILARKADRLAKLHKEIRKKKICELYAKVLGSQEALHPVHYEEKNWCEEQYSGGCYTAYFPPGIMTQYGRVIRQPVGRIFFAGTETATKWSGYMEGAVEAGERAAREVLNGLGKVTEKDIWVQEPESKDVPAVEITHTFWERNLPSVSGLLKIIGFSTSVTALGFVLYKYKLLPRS
The experiment in a line: Inhibition of MAO-A (unknown origin) using (4S)-4,5-dihydro-2-(6-hydroxybenzothiazolyl)-4-thiazolecarboxylic acid as substrate by MAO-Glo assay.

The subject of a further test is MV4-11. The experiment in a line: cells. The following applies: Homo sapiens, MV4-11, 192 h.
Test [4] deals with Lysine-specific histone demethylase 1A (Homo sapiens, UniProt O60341). The experiment in a line: Inhibition of full length LSD1 (unknown origin) expressed in Escherichia coli BL21 (DE) using H3K4me2 peptide as substrate after 30 mins by fluorescence assay.
Test [5] deals with THP-1. Nature of the test: Induction of morphological changes in human THP1 cells assessed as chromatin shrinkage after 3 days by H and E staining based assay. Format: functional, cell-based.
The test system of test [6] is THP-1. The experiment in a line: Induction of morphological changes in human THP1 cells assessed as blurred cell membrane boundaries after 3 days by H and E staining based assay. Format: functional.
Test [7] relates to THP-1. The experiment in a line: Inhibition of colony formation in human THP1 cells after 14 days by DAPI staining-based microscopic analysis. The format is functional, cell-based.

Some results are limits rather than exact numbers.

By IC50 is commonly meant the concentration that gives 50% inhibition. A lower IC50 goes with greater potency.

Regarding `N/C(=N\O)c1cccc(/C=C/c2ccnc(-c3ccccc3O)c2)c1`, the IC50 was 9.05 µM in the test with MOLM-13; over 50 µM in test [1]; 13.7 µM in the test with THP-1 [2]; over 50 µM in test [3]; 15.8 µM in the test on MV4-11.
Take `Nc1cccc(/C=C/c2ccc(O)c(-c3ccccn3)c2)c1`: the IC50 with MOLM-13 was 12.5 µM; in test [1], over 50 µM; in the test with THP-1 [2] it was 10.5 µM; in test [4] it was 0.301 µM; in test [3], over 50 µM; in the test with MV4-11 it was 10.9 µM.
In the case of `N[C@H]1CC[C@H](N[C@@H]2C[C@H]2c2ccccc2)CC1`, the half-maximal inhibitory concentration (IC50) in the test with THP-1 [2] was over 20 µM.
Turning to `N/C(=N\O)c1cccc(/C=C/c2ccnc(-c3cc(F)ccc3O)c2)c1`, the half-inhibitory concentration (IC50) in the test with MOLM-13 was 8.34 µM; in test [1], over 50 µM; in the test on THP-1 [2], 5.76 µM; in [3], over 50 µM; with MV4-11, 7.49 µM. Besides, the Activity entry with THP-1 [5] and in the test on THP-1 [6] was “Dose-dependent effect” in each case. Moreover, the inhibition result in the test on THP-1 [7] is “Dose-dependent effect”.
For `N/C(=N\O)c1cccc(/C=C/c2ccc(O)c(-c3ccccn3)c2)c1`, the IC50 is 22.6 µM in the test on MOLM-13; over 50 µM in test [1]; 7.89 µM in the test on THP-1 [2]; over 50 µM in test [3]; 4.71 µM in the test with MV4-11.

The values above are taken from ChEMBL document CHEMBL4308871, “Design, synthesis and in vitro evaluation of stilbene derivatives as novel LSD1 inhibitors for AML therapy” (Bioorg Med Chem, 2018).
